Results reported in patent US20250114325A1 (JIANGSU PROVINCE HOSPITAL OF CHINESE MEDICINE, priority 2022, published 2025).

Columns and labels:
Type in all cases: cell-based, human
Hela cells [1] = test: Cell proliferation experiment (CCK-8 cell viability); conditions: single agent, 24 h, 48 h, 72 h, dose and time-dependent
Description: (§1) Assay of cell viability by CCK-8 kit: Cells (cell density: 1000 cells/well) were inoculated in a 96-well plate and cultured for 24 hours. […] Cell proliferation was detected using Cell Counting Kit-8 (CCK-8).

SiHa cells [2] = test: as above; conditions: single agent, 24 h, 48 h, 72 h, dose and time-dependent
Description: as §1

SiHa cells [3] = test: Annexin V-AF647/PI flow cytometry apoptosis assay; conditions: added to Atr-I (BzATP 100 μM or JNJ 20 μM); 48 h
Description: (§2) The cell lines selected were human cervical cancer Hela (HPV18+) and Siha (HPV16+) cell lines.
(§3) The proportion of apoptotic cells was measured using the Annexin V-AF647/PI Apoptosis Kit (E-CK-A213; Elabscience Biotechnology, Wuhan, China). The cells in logarithmic growth phase were used and seeded in a culture bottle at a suspension density of 1×10^6 cells/mL, and then cultured in a CO2 incubator for 24 h. […] Subsequently, the cells were re-suspended in 500 μL of the binding buffer. After adding 5 μL of Annexin V-AF647 and 5 μL of PI to the cell suspension, respectively, the cell cycle was assayed using FACSCalibur flow cytometry (BD Biosciences, San Jose, CA, USA). The data were analyzed with FlowJo software (FlowJo, Ashland, OR, USA).

Hela cells [4] = test: Annexin V-AF647/PI flow cytometry apoptosis assay; conditions: added to Atr-I (BzATP 100 μM or JNJ 20 μM); 48 h
Description: as §2, §3

## Nc1ncnc2c1ncn2[C@@H]1O[C@H](COP(=O)(O)OP(=O)(O)OP(=O)(O)O)[C@@H](OC(=O)c2ccc(C(=O)c3ccccc3)cc2)[C@H]1O [BzATP]
Hela cells [1]
  inhibition of growth of Hela cells: significantly inhibited the growth
SiHa cells [2]
  inhibition of growth of SiHa cells: significantly inhibited the growth
SiHa cells [3]
  effect on Atr-I-induced apoptosis in SiHa cells: had no effect on Atr-I-induced apoptosis in SiHa cells
Hela cells [4]
  effect on Atr-I-induced apoptosis in Hela cells: inhibited Atr-I-induced apoptosis in Hela cells
